Measurements as given in US9776965B2, “Pyrrolidin-2-one and piperidin-2-one derivatives as 11-beta hydroxysteroid dehydrogenase inhibitors” (Janssen Pharmaceutica N.V., priority 2004, dated 2017).

Columns and labels:
11b-HSD1 [1] = molecular target: T1, 11b-HSD1 (Mus musculus, UniProt P50172); assay: Cellular assay, 11b-HSD1 activity in differentiated 3T3-L1 cells; type: cell-based; settings: 4 hour pre-incubation, read-out: [C2] HSD1 cellular 3T3-L1 Score
T1 construct: Fibroblasts were differentiated into adipocytes; endogenous in cells; host or cells: differentiated 3T3-L1 cells (ATCC-CL-173)
T1 sequence (P50172 whole entry): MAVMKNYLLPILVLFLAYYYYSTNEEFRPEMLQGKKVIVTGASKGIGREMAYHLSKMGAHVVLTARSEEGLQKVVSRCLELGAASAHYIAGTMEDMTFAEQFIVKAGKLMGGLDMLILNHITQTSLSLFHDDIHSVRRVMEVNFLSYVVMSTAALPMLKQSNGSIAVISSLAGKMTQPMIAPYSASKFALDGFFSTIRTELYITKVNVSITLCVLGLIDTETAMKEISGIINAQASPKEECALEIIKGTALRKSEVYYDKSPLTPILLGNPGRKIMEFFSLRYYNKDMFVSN
Description: The effects on 11b-HSD1 activity was measured in differentiated 3T3-L1 cells and rat hepatocytes.
Mouse fibroblast 3T3-L1 cells (ATCC-CL-173) were seeded at a density of 16500 cells/ml in 12 well plates and grown for 7 days in DMEM medium (supplemented with 10% heat inactivated foetal calf serum, 2 mM glutamine and 25 mg gentamycin) at 37 C in a humidified 5% CO2 atmosphere. Medium was refreshed twice a week. Fibroblasts were differentiated into adipocytes at 37 C in a 5% CO2 humidified atmosphere in growth medium containing 2 μg/ml insulin, 55 μg/ml IBMX and 39.2 μg/ml dexamethasone.
Following a 4 hour pre-incubation with test compound, 0.5 μCi ^3H-cortisone or dehydrocorticosterone, was added to the cultures. One hour later, the medium was extracted on Extrelut^3-columns with 15 ml diethyl ether and the extract was analysed by HPLC as described above.
As for the enzymatic assays, the compounds to be tested were taken from a stock solution and tested at a final concentration ranging from […] to 3.10^−9M. From the thus obtained dose response curves, the pIC50 value was calculated and scored as follows; Score 1=pIC50 value<5, Score 2=pIC50 value in the range of 5 to 6, Score 3=pIC50 value>6. Some of the thus obtained results are summarized in the table below (in this table NT stands for Not Tested).

11b-HSD1 [2] = molecular target: 11b-HSD1 (Homo sapiens, UniProt P28845); assay: Enzymatic assay, 11b-HSD1 dependent conversion of cortisone into cortisol (reductase activity); type: biochemical; settings: recombinant protein, 2 μM cortisone, 45 min at 37 C; read-out: [C1] HSD1-prot Reduct Score
11b-HSD1 (Homo sapiens, UniProt P28845), sequence (P28845 whole entry): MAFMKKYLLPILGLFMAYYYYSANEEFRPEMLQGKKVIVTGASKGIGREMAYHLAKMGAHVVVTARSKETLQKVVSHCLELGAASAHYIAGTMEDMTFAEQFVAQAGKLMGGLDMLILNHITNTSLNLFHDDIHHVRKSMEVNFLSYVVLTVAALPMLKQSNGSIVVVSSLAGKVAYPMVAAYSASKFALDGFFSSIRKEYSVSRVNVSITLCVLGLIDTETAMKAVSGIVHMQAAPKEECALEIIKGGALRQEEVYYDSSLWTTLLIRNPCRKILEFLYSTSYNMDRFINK
Description: The effects of compounds on 11b-HSD1 dependent conversion of cortisone into cortisol (reductase activity) was studied in a reaction mixture containing 30 mM Tris-HCl buffer pH 7.2, 180 μM NADPH, 1 mM EDTA, 2 μM cortisone, 1 μl drug and/or solvent and 11 μg recombinant protein in a final volume of 100 μl.
All incubations were performed for 45 min at 37 C in a water bath. The reaction was stopped by adding 100 μl acetonitrile containing 20 μg corticosterone as internal standard. After centrifugation, the product formation was analysed in the supernatant by HPLC on a Hypersyl BDS-C18 column using 0.05 mM ammonium acetate/methanol (50/50) as solvent. In all of the aforementioned assays, the drugs to be tested were taken from a stock solution and tested at a final concentration ranging from […] to 3.10^−9M. From the thus obtained dose response curves, the pIC50 value was calculated and scored as follows; Score 1=pIC50 value<5, Score 2=pIC50 value in the range of 5 to 6, Score 3=pIC50 value>6. (in this table NT stands for Not Tested).

Row | Compound | IC50 (11b-HSD1 [1]) [µM] | IC50 (11b-HSD1 [2]) [µM]
1 | COc1ccccc1CC1CCN(CCc2ccccc2)C1=O (centres unmarked) [Compound 33] | < 1 | > 10
2 | Cc1ccc(CCN2CCC(Cc3c(Cl)cccc3Cl)C2=O)cc1 (centres unmarked) [Compound 93] | > 10 | > 10
3 | Cc1cccc(CC2CCN(Cc3ccccc3)C2=O)c1 (centres unmarked) [Compound 56] | 1 to 10 | > 10
4 | COc1ccccc1C[C@H]1CCN([C@H](C)c2ccccc2)C1=O [Compound 39] | 1 to 10 | > 10
5 | N#Cc1ccccc1CC1CCN(CCc2ccccc2)C1=O (centres unmarked) [Compound 23] | < 1 | 1 to 10
6 | O=C1C(Cc2ccc3c(c2)OCO3)CCN1CCc1ccccc1 (centres unmarked) [Compound 89] | 1 to 10 | > 10
7 | COc1ccccc1C[C@@H]1CCN([C@H](C)c2ccccc2)C1=O [Compound 38] | 1 to 10 | > 10
8 | C[C@@H](c1ccccc1)N1CC[C@H](CCc2ccccc2)C1=O [Compound 73] | 1 to 10 | < 1
9 | Cc1cccc(C[C@H]2CCN([C@@H](C)c3ccccc3)C2=O)c1 [Compound 15] | 1 to 10 | 1 to 10
10 | COc1cccc(C[C@H]2CCN([C@@H](C)c3ccccc3)C2=O)c1 [Compound 19] | < 1 | 1 to 10
11 | C[C@@H](c1ccccc1)N1CC[C@H](Cc2cccc(Cl)c2Cl)C1=O [Compound 11] | 1 to 10 | < 1
12 | Cc1cccc(CC2CCN(CCc3ccccc3)C2=O)c1 (centres unmarked) [Compound 29] | 1 to 10 | 1 to 10
13 | O=C1C(Cc2c(F)cccc2F)CCN1CCc1ccccc1 (centres unmarked) [Compound 84] | < 1 | 1 to 10
14 | COc1ccccc1CC1CCN(Cc2ccccc2)C1=O (centres unmarked) [Compound 60] | 1 to 10 | > 10
15 | C[C@@H](c1ccccc1)N1CC[C@H](CCc2cccc3ccccc23)C1=O [Compound 75] | 1 to 10 | < 1
16 | O=C1C(Cc2ccc(F)cc2Cl)CCCN1CCc1ccccc1 (centres unmarked) [Compound 88] | 1 to 10 | 1 to 10
17 | COc1ccc(CCN2CCC(Cc3c(Cl)cccc3Cl)C2=O)cc1 (centres unmarked) [Compound 92] | 1 to 10 | < 1
18 | C[C@H](c1ccccc1)N1CC[C@@H](Cc2ccccc2C#N)C1=O [Compound 49] | < 1 | 1 to 10
19 | Cc1cccc(C)c1CC1CCN(CCc2ccccc2)C1=O (centres unmarked) [Compound 83] | > 10 | < 1
20 | C[C@H](c1ccccc1)N1CC[C@H](Cc2cccc(Cl)c2Cl)C1=O [Compound 43] | 1 to 10 | 1 to 10
21 | COC[C@H](c1ccccc1)N1CC[C@@H](Cc2c(Cl)cccc2Cl)C1=O [Compound 99] | < 1 | < 1
22 | Cc1ccccc1C[C@H]1CCN([C@H](C)c2ccccc2)C1=O [Compound 67] | < 1 | 1 to 10
23 | Cc1ccc([C@@H](O)[C@H]2CCN([C@@H](C)c3ccccc3)C2=O)c(C)c1 [Compound 90] | 1 to 10 | > 10
24 | O=C1C(Cc2cccc(Cl)c2Cl)CCN1Cc1ccccc1 (centres unmarked) [Compound 58] | 1 to 10 | 1 to 10
25 | C[C@H](c1ccccc1)N1CC[C@@H](Cc2cccc(Cl)c2Cl)C1=O [Compound 42] | 1 to 10 | > 10
26 | C[C@H](c1ccccc1)N1CC[C@H](Cc2ccccc2)C1=O [Compound 36] | 1 to 10 | > 10
27 | CC[C@@H](c1ccccc1)N1CC[C@@H](Cc2c(Cl)cccc2Cl)C1=O [Compound 95] | 1 to 10 | < 1

The next lines start with the values.

Row | IC50 (11b-HSD1 [1]) [µM] | IC50 (11b-HSD1 [2]) [µM] | Compound
28 | > 10 | > 10 | O=C1C(Cc2c(Cl)cccc2Cl)CCN1[C@H](Cc1ccccc1)c1ccccc1 (single isomer, unassigned) [Compound 103]
29 | 1 to 10 | 1 to 10 | C[C@@H](c1ccccc1)N1CC[C@H](CCc2c(F)cccc2Cl)C1=O [Compound 129]
30 | < 1 | > 10 | CC(C)(c1ccccc1)N1CCC(Cc2c(Cl)cccc2Cl)C1=O (centres unmarked) [Compound 115]
31 | > 10 | 1 to 10 | C[C@H](c1ccccc1)[C@@H]1CCN([C@@H](C)c2ccccc2)C1=O [Compound 161]
32 | > 10 | > 10 | COc1ccc(CC[C@@H]2CCN([C@@H](C)c3ccccc3)C2=O)cc1OC [Compound 125]
33 | 1 to 10 | 1 to 10 | Cc1ccccc1CC1CCN(CCCc2ccccc2)C1=O (centres unmarked) [Compound 110]
34 | > 10 | 1 to 10 | COC[C@@H](c1ccccc1)N1CC[C@H](Cc2c(Cl)cccc2Cl)C1=O [Compound 100]
35 | < 1 | < 1 | C[C@H](C[C@H]1CCN([C@@H](C)c2ccccc2)C1=O)c1ccccc1 [Compound 137]
36 | 1 to 10 | 1 to 10 | COc1ccccc1CC[C@H]1CCN([C@@H](C)c2ccccc2)C1=O [Compound 124]
37 | > 10 | > 10 | COc1cc(C[C@@H]2CCN([C@@H](C)c3ccccc3)C2=O)ccc1OCc1ccccc1 [Compound 121]
38 | > 10 | > 10 | Cc1ccccc1CC1(Cc2ccccc2)CCN([C@@H](C)c2ccccc2)C1=O (mixture of isomers) [Compound 147]
39 | 1 to 10 | > 10 | C[C@@H](c1ccccc1)N1CC[C@H](CCc2ccc(N(C)C)cc2)C1=O [Compound 131]
40 | < 1 | < 1 | C[C@@H](c1ccccc1)N1CC[C@H](Cc2ccc(F)cc2Cl)C1=O [Compound 150]
41 | 1 to 10 | 1 to 10 | C[C@@H](c1ccccc1)N1CC[C@@H](Cc2ccc3c(c2)OCO3)C1=O [Compound 153]
42 | > 10 | > 10 | CCC(CC1(CC(CC)c2ccccc2)CCN([C@@H](C)c2ccccc2)C1=O)c1ccccc1 (mixture of isomers) [Compound 165]
43 | > 10 | < 1 | C[C@@H](c1ccccc1)[C@H]1CCN([C@@H](C)c2ccccc2)C1=O [Compound 160]
44 | 1 to 10 | 1 to 10 | O=C1C(Cc2ccccc2Cl)CCN1CCCc1ccccc1 (centres unmarked) [Compound 111]
45 | < 1 | < 1 | C[C@@H](c1ccccc1)[C@@H]1CCN([C@@H](C)c2ccccc2)C1=O [Compound 158]
46 | > 10 | 1 to 10 | O=C1[C@H](Cc2c(Cl)cccc2Cl)CCN1[C@@H](CO)c1ccccc1 [Compound 107]
47 | > 10 | < 1 | CC[C@@H](C[C@H]1CCN([C@@H](C)c2ccccc2)C1=O)c1ccccc1 [Compound 141]
48 | > 10 | 1 to 10 | O=C1[C@@H](Cc2c(Cl)cccc2Cl)CCN1[C@@H](CO)c1ccccc1 [Compound 106]
49 | > 10 | > 10 | CC[C@@]1(Cc2ccccc2C)CCN([C@H](C)c2ccccc2)C1=O [Compound 144]
50 | < 1 | < 1 | C[C@@H](c1ccccc1)N1CC[C@@H](Cc2cc3c(cc2Cl)OCO3)C1=O [Compound 155]
51 | < 1 | > 10 | CC[C@H](C[C@H]1CCN([C@@H](C)c2ccccc2)C1=O)c1ccccc1 [Compound 140]
52 | 1 to 10 | – | C[C@@H](c1ccccc1)N1CCC(C)(c2ccccc2)C1=O (some centres unmarked) [Compound 166]
53 | > 10 | – | C[C@H](c1ccccc1)N1CCC(C)(c2ccccc2)C1=O (some centres unmarked) [Compound 167]
